These results are taken from patent publication US20130040998A1, “FLUORINATED HDAC INHIBITORS AND USES THEREOF” (Dana-Farber Cancer Institute, Inc., priority 2010, published 2013).

The test system of data set [1] is class IIa HDACs (HDAC4, HDAC5, HDAC7, HDAC9). In words: HDAC inhibition assay, class IIa HDAC enzymes. Format: biochemical, human. The protocol: (§1) The inventive compounds may be tested in any assay for HDAC inhibitor activity. In certain embodiments, the assay for determining the inhibitory effect of an inventive compound on an HDAC protein comprising: incubating the HDAC protein with a substrate of formula: […]
(§2) in the presence of an inventive compound; and determining the activity of the HDAC protein by monitoring the release of 7-amino-4-methylcoumarin after cleavage by trypsin.
(§3) In certain embodiments, the assay is performed in water. In other embodiments, the assay is performed in an organic solvent. In still other embodiments, the assay in performed in a buffer. In certain embodiments, the buffer is an assay buffer. In other embodiments, the assay buffer comprises HEPES, KCl, Tween-20, BSA, and TCEP. In further embodiments, the assay buffer is […] HEPES, 100 mM KCl, 0.001% Tween-20, 0.05% BSA, 200 µM TCEP, pH 7.4. In certain embodiments, the assay is performed at approximately pH 5.0-6.0. In certain embodiments, the assay is performed at approximately pH 5.0-9.0. In certain embodiments, the assay is performed at a pH optimum for an HDAC enzyme to function.

The conditions of data set [2]: difference versus unsubstituted cinnamic hydroxamic acid; Dessolin et al. 1970; cited from earlier work.
The subject of the next data set is HDAC1-3. In words: HDAC inhibition assay, HDAC1-3. The settings on record: fluorinated MAZ1702 versus MAZ1704. Type of data set: biochemical, human. The protocol:
as §1, §2, §3

SMILES strings stand for the structures.

As to `O=C(NO)C(F)=Cc1ccccc1` [α-fluoro cinnamic hydroxamic acid], the “fold increase in activity for class IIa enzymes” value in data set [1] (direct comparison with cinnamic hydroxamic acid) is listed as 5-10 fold. The “pKa, units lower than unsubstituted cinammic hydroxamic acid” value in data set [2] is reported as “approximately 0.9 units”.

In the case of `O=C(NO)/C(F)=C/c1ccccc1` [MAZ1702], the “affinity for class IIa HDAC enzymes compared to MAZ1704” value in data set [1] (FIG. 2 legend, in words) is on record as “significantly increased affinity”. In data set [1] (fluorinated MAZ1702 versus MAZ1704 (FIG. 2)), the “binds fold better to class IIa enzymes” value is listed as 3.5-5 fold. The “fold increase in activity for HDAC1-3” value in the data set on HDAC1-3 was 1-1.4 fold.
